The values below come from patent EP3436445B1, “HISTONE DEMETHYLASE INHIBITORS” (Celgene Quanticel Research, Inc., priority 2016, dated 2017).

The experiment deals with T1, JMJD2C (Homo sapiens, UniProt Q9H3R0).
T1 construct: purchased BPS Bioscience 50105
T1 sequence (Q9H3R0 2-372): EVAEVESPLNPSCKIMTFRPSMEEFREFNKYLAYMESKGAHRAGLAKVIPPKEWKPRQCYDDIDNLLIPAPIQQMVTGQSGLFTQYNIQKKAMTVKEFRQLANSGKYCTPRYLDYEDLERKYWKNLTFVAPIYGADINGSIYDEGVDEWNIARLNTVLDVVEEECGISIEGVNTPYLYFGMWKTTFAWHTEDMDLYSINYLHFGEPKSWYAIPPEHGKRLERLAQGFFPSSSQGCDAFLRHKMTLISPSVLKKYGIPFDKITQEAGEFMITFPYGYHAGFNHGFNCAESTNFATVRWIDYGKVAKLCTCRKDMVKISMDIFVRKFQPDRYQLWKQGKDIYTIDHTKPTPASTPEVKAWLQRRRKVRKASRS
Description: JMJD2C in vitro enzyme inhibition assay (TR-FRET). It counts as biochemical. The settings on record: Table 5; 0.3 nM JMJD2C, H3K9me3-biotin labeled peptide. An excerpt:
This assay determines the ability of a test compound to inhibit Jarid1B, JMJD2C and JMJD3 demethylase activity. Baculovirus expressed Jarid1B (GenBank Accession #NM-006618, AA 2-751) was purchased from BPS Bioscience (Cat #50121) or custom made by MolecularThroughput. Baculovirus expressed JMJD2C (GenBank Accession #BC143571, AA 2-372) was purchased from BPS Bioscience (Cat#50105). Baculovirus expressed JMJD3 (GenBank Accession #NM-001080424, AA1043-end) was purchased from BPS Bioscience (Cat#50115).
The ability of test compounds to inhibit the activity of JMJD2C was determined in 384-well plate format under the following reaction conditions: 0.3 nM JMJD2C, 300 nM H3K9me3-biotin labeled peptide (Anaspec cat #64360), 2 µM alpha-ketoglutaric acid in assay buffer of 50 mM HEPES, pH7.3, 0.005% Brij35, 0.5 mM TCEP, 0.2 mg/ml BSA, 50 µM sodium L-ascorbate, and 2 µM ammonium iron(II) sulfate. Reaction product was determined quantitatively by TR-FRET after the addition of detection reagent Phycolink Streptavidin-allophycocyanin (Prozyme) and Europium-anti-di-methylated histone H3 lysine 9 (H3K9me2) antibody (PerkinElmer) in the presence of 5 mM EDTA in LANCE detection buffer (PerkinElmer) at a final concentration of 50 nM and 1 nM, respectively.
The assay reaction was initiated by the following: 2 µl of the mixture of 900 nM H3K9me3-biotin labeled peptide and 6 µM alpha-ketoglutaric acid with 2 µl of 11-point serial diluted inhibitor in 3% DMSO were added to each well of the plate, followed by the addition of 2 µl of 0.9 nM JMJD2C to initiate the reaction. The reaction mixture was incubated at room temperature for 30 minutes, and terminated by the addition of 6 µl of 5 mM EDTA in LANCE detection buffer containing 100 nM Phycolink Streptavidin-allophycocyanin and 2 nM Europium-anti-H3K9me2 antibody. Plates were read by EnVisionMultilabel Reader in TR-FRET mode (excitation at 320 nm, emission at 615 nm and 665 nm) after 1 hour incubation at room temperature. A ratio was calculated (665/615) for each well and fitted to determine inhibition constant (IC50).
(Time-resolved FRET reads energy transfer from a long-lived donor to a nearby acceptor.)

A value given as a limit tells only on which side of the number the result lay.

With `FC(F)(F)c1[nH]nnc1-c1ccnc(-c2cn(CC3CCc4ccccc43)cn2)c1` (stereo not shown) [Example 83, 2-{1-[(2,3-dihydro-1H-inden-1-yl)methyl]-1H-imidazol-4-yl}-4-[5-(trifluoromethyl)-1H-1,2,3-triazol-4-yl]pyridine], the half-maximal inhibitory concentration (IC50) (in general, the concentration that gives 50% inhibition) was in the range of 1 to 10 µM. The compound `Fc1ccccc1CCn1cnc(-c2cc(-c3nn[nH]c3C(F)(F)F)ccn2)c1` [Example 84, 2-{1-[2-(2-fluorophenyl)ethyl]-1H-imidazol-4-yl}-4-[5-(trifluoromethyl)-1H-1,2,3-triazol-4-yl]pyridine] had a half-maximal inhibitory concentration (IC50) of more than 10 µM.

For the compound `Fc1ccc2c(c1)C(n1cnc(-c3cc(-c4nn[nH]c4C(F)(F)F)ccn3)c1)CC2` (stereo not shown) [Example 85, 2-[1-(6-fluoro-2,3-dihydro-1H-inden-1-yl)-1H-imidazol-4-yl]-4-[5-(trifluoromethyl)-1H-1,2,3-triazol-4-yl]pyridine], the half-inhibitory concentration (IC50) lay in the range of 1 to 10 µM. In the case of `Fc1ccc(CCn2cnc(-c3cc(-c4nn[nH]c4C(F)(F)F)ccn3)c2)c(F)c1` [Example 86, 2-{1-[2-(2,4-difluorophenyl)ethyl]-1H-imidazol-4-yl}-4-[5-(trifluoromethyl)-1H-1,2,3-triazol-4-yl]pyridine], the IC50 is more than 10 µM.

`Fc1cccc(F)c1CCn1cnc(-c2cc(-c3nn[nH]c3C(F)(F)F)ccn2)c1` [Example 87, 2-{1-[2-(2,6-difluorophenyl)ethyl]-1H-imidazol-4-yl}-4-[5-(trifluoromethyl)-1H-1,2,3-triazol-4-yl]pyridine] came in with an IC50 of more than 10 µM. With `Fc1ccc(F)c(CCn2cnc(-c3cc(-c4nn[nH]c4C(F)(F)F)ccn3)c2)c1` [Example 88, 2-{1-[2-(2,5-difluorophenyl)ethyl]-1H-imidazol-4-yl}-4-[5-(trifluoromethyl)-1H-1,2,3-triazol-4-yl]pyridine], the half-maximal inhibitory concentration (IC50) was more than 10 µM.

For `O=C(c1ccccc1)N1CCC[C@@H](n2cnc(-c3cc(-c4nn[nH]c4C(F)(F)F)ccn3)c2)C1` [Example 89, 2-{1-[(3R)-1-benzoylpiperidin-3-yl]-1H-imidazol-4-yl}-4-[5-(trifluoromethyl)-1H-1,2,3-triazol-4-yl]pyridine], the IC50 is more than 10 µM.

As to `O=C(c1ccccc1)N1CCC[C@H](n2cnc(-c3cc(-c4nn[nH]c4C(F)(F)F)ccn3)c2)C1` [Example 90, 2-{1-[(3S)-1-benzoylpiperidin-3-yl]-1H-imidazol-4-yl}-4-[5-(trifluoromethyl)-1H-1,2,3-triazol-4-yl]pyridine], the IC50 was more than 10 µM. In the case of `Cc1ccc(CCn2cnc(-c3cc(-c4nn[nH]c4C(F)(F)F)ccn3)c2)cc1` [Example 91, 2-{1-[2-(4-methylphenyl)ethyl]-1H-imidazol-4-yl}-4-[5-(trifluoromethyl)-1H-1,2,3-triazol-4-yl]pyridine], the IC50 was more than 10 µM.

Take `FC(F)(F)c1[nH]nnc1-c1ccnc(-c2cn(CCc3ccc(Cl)cc3)cn2)c1` [Example 92, 2-{1-[2-(4-chlorophenyl)ethyl]-1H-imidazol-4-yl}-4-[5-(trifluoromethyl)-1H-1,2,3-triazol-4-yl]pyridine]: the concentration for half-maximal inhibition (IC50) was more than 10 µM. For `COc1ccc(CCn2cnc(-c3cc(-c4nn[nH]c4C(F)(F)F)ccn3)c2)cc1` [Example 93, 2-{1-[2-(4-methoxyphenyl)ethyl]-1H-imidazol-4-yl}-4-[5-(trifluoromethyl)-1H-1,2,3-triazol-4-yl]pyridine], the IC50 is more than 10 µM. For the compound `FC(F)(F)c1ccc(CCn2cnc(-c3cc(-c4nn[nH]c4C(F)(F)F)ccn3)c2)cc1` [Example 94, 4-[5-(trifluoromethyl)-1H-1,2,3-triazol-4-yl]-2-(1-{2-[4-(trifluoromethyl)phenyl]ethyl}-1H-imidazol-4-yl)pyridine], the IC50 was more than 10 µM. Next, `CCc1ccc(CCn2cnc(-c3cc(-c4nn[nH]c4C(F)(F)F)ccn3)c2)cc1` [Example 95, 2-{1-[2-(4-ethylphenyl)ethyl]-1H-imidazol-4-yl}-4-[5-(trifluoromethyl)-1H-1,2,3-triazol-4-yl]pyridine]: more than 10 µM. `CC(C)(C)c1ccc(CCn2cnc(-c3cc(-c4nn[nH]c4C(F)(F)F)ccn3)c2)cc1` [Example 96, 2-{1-[2-(4-tert-butylphenyl)ethyl]-1H-imidazol-4-yl}-4-[5-(trifluoromethyl)-1H-1,2,3-triazol-4-yl]pyridine]: the half-maximal inhibitory concentration (IC50) was more than 10 µM. Turning to `Cn1cnc(-c2cc(-c3nn[nH]c3C(F)(F)F)ccn2)c1-c1ccc(F)cc1` [Example 97, 2-[5-(4-fluorophenyl)-1-methyl-1H-imidazol-4-yl]-4-[5-(trifluoromethyl)-1H-1,2,3-triazol-4-yl]pyridine], the IC50 is more than 10 µM. `FC(F)(F)c1[nH]nnc1-c1ccnc(-c2cn(CC3CCOc4ccccc43)cn2)c1` (stereo not shown) [Example 98, 2-{1-[(3,4-dihydro-2H-1-benzopyran-4-yl)methyl]-1H-imidazol-4-yl}-4-[5-(trifluoromethyl)-1H-1,2,3-triazol-4-yl]pyridine] showed an IC50 of more than 10 µM.

As to `Fc1cccc2c1CCCC2Cn1cnc(-c2cc(-c3nn[nH]c3C(F)(F)F)ccn2)c1` (stereo not shown) [Example 99, 2-{1-[(5-fluoro-1,2,3,4-tetrahydronaphthalen-1-yl)methyl]-1H-imidazol-4-yl}-4-[5-(trifluoromethyl)-1H-1,2,3-triazol-4-yl]pyridine], the IC50 is more than 10 µM. `Fc1ccc2c(c1)CCCC2Cn1cnc(-c2cc(-c3nn[nH]c3C(F)(F)F)ccn2)c1` (stereo not shown) [Example 100, 2-{1-[(6-fluoro-1,2,3,4-tetrahydronaphthalen-1-yl)methyl]-1H-imidazol-4-yl}-4-[5-(trifluoromethyl)-1H-1,2,3-triazol-4-yl]pyridine] came in with an IC50 of more than 10 µM. The compound `Fc1ccc2c(c1)C(Cn1cnc(-c3cc(-c4nn[nH]c4C(F)(F)F)ccn3)c1)CCC2` (stereo not shown) [Example 101, 2-{1-[(7-fluoro-1,2,3,4-tetrahydronaphthalen-1-yl)methyl]-1H-imidazol-4-yl}-4-[5-(trifluoromethyl)-1H-1,2,3-triazol-4-yl]pyridine] returned a 50% inhibitory concentration (IC50) of more than 10 µM. In the case of `Cc1ccc2c(c1)CCCC2Cn1cnc(-c2cc(-c3nn[nH]c3C(F)(F)F)ccn2)c1` (stereo not shown) [Example 102, 2-{1-[(6-methyl-1,2,3,4-tetrahydronaphthalen-1-yl)methyl]-1H-imidazol-4-yl}-4-[5-(trifluoromethyl)-1H-1,2,3-triazol-4-yl]pyridine], the half-inhibitory concentration (IC50) was more than 10 µM. `Cc1ccc2c(c1)C(Cn1cnc(-c3cc(-c4nn[nH]c4C(F)(F)F)ccn3)c1)CCC2` (stereo not shown) [Example 103, 2-{1-[(7-methyl-1,2,3,4-tetrahydronaphthalen-1-yl)methyl]-1H-imidazol-4-yl}-4-[5-(trifluoromethyl)-1H-1,2,3-triazol-4-yl]pyridine] showed an IC50 of more than 10 µM. Compound `COc1cccc2c1CCCC2Cn1cnc(-c2cc(-c3nn[nH]c3C(F)(F)F)ccn2)c1` (stereo not shown) [Example 104, 2-{1-[(5-methoxy-1,2,3,4-tetrahydronaphthalen-1-yl)methyl]-1H-imidazol-4-yl}-4-[5-(trifluoromethyl)-1H-1,2,3-triazol-4-yl]pyridine] yielded an IC50 of more than 10 µM. Next, `COc1ccc2c(c1)CCCC2Cn1cnc(-c2cc(-c3nn[nH]c3C(F)(F)F)ccn2)c1` (stereo not shown) [Example 105, 2-{1-[(6-methoxy-1,2,3,4-tetrahydronaphthalen-1-yl)methyl]-1H-imidazol-4-yl}-4-[5-(trifluoromethyl)-1H-1,2,3-triazol-4-yl]pyridine]: more than 10 µM.

Compound `COc1ccc2c(c1)C(Cn1cnc(-c3cc(-c4nn[nH]c4C(F)(F)F)ccn3)c1)CCC2` (stereo not shown) [Example 106, 2-{1-[(7-methoxy-1,2,3,4-tetrahydronaphthalen-1-yl)methyl]-1H-imidazol-4-yl}-4-[5-(trifluoromethyl)-1H-1,2,3-triazol-4-yl]pyridine] showed an IC50 of more than 10 µM. Next, `COc1cccc2c1C(Cn1cnc(-c3cc(-c4nn[nH]c4C(F)(F)F)ccn3)c1)CCC2` (stereo not shown) [Example 107, 2-{1-[(8-methoxy-1,2,3,4-tetrahydronaphthalen-1-yl)methyl]-1H-imidazol-4-yl}-4-[5-(trifluoromethyl)-1H-1,2,3-triazol-4-yl]pyridine]: more than 10 µM.
